According to article PMC7719179, “Small molecule inhibition of Dynamin-dependent endocytosis targets multiple niche signals and impairs leukemia stem cells” (Nature Communications, 2020):
Several values for one entry are separate records, joined by “and”; a condition that tells them apart may be missing. Equal values may be shown once.

Tests used:
in vitro = conditions: mouse, Relative % viable cells
[1] = test system: normal murine hematopoietic stem and progenitor cells (HSPCs)
Procedure: Bone marrow cells collected from 2-month-old WT mice or CD34-positive (CD34+) stem and progenitor bone marrow cells from healthy donors were seeded at a density of 5 × 10^4 cells per 35 mm dish in semi-solid agar for GM colony growth, as previously described[92]. Cultures were incubated at 37 °C in 10% CO2 for 10 days in presence of 10 μg/mL rhIL-3 (#200-03, Pepro Tech), 25 μg/mL rhSCF (#300-07, Pepro Tech), 25 μg/mL rhFLT3-L (#300-19, Pepro Tech), rhIL-6 (#200-06, Pepro Tech), 500 nM StemRegenin 1 (SR1; #1227633-49-9, Stem Cell Technologies) and 35 nM UM-171 (#72914, Stem Cell Technologies)[93],[94], then stained with acetyl-cholinesterase and counted for the number of colonies.

GFP^hi DN3a thymocytes = assay: Cell cycle-restricted GFP^hi DN3a thymocytes in treated H2B-GFP;Lmo2^Tg mice; format: in vivo, mouse
[2] = test system: ETP12 and ALL8 patient-derived xenografts; assay: Xenograft models of human T-ALL (ETP12, ALL8): leukemic burden in blood, bone marrow, spleen; spleen weight; format: in vivo
Procedure: Patient-derived xenograft models were established as previously described[97],[98]. All experiments were pre-approved by the Human Research Ethics Committee of the University of New South Wales (UNSW), the UNSW Animal Care and Ethics Committee, the Alfred Health Human Ethics Committee and the AMREP Animal Ethics Committee. For transplantation assays, 10^6 splenocytes harvested from successfully engrafted primary human ETP-ALL or T-ALL xenografts were injected into nonobese diabetic/severe combined immunodeficient (NOD.Cg-Prkdc^scid, also termed NOD/SCID) or NOD/SCID/Il2rg^tm1wjl/SzJ (NSG) mice[99]. Moreover, 1.5 × 10^6 cells splenocytes harvested from successfully engrafted patient-derived AML xenografts were injected into nonobese diabetic/severe immunodeficient (NOD.Cg-Rag1^tm1MomIl2rg^tm1wjl/SzJ, also termed NRG) mice expressing human IL-3, human GM-CSF and human SCF from the SGM3 triple transgene (NRGS)[100]. Engraftment into recipients was monitored by FACS analysis of peripheral blood as previously described. […] Both males and females were used. […] Kaplan–Meier survival and statistical analyses were performed using GraphPad Prism. 6.0 software (GraphPad Software, Inc.).
Spleen and sternum from recipients were collected, incubated at least 24 h in 3.7% neutral buffered formalin (pH 7.4), embedded in paraffin and sectioned at 8 μm onto Superforst-Plus slides. Samples were incubated with an anti-human CD45 antibody (Dako, #M0701) in Dako Autostainer Plus solution, then incubated with a sheep anti-mouse IgG conjugated to HRP and processed as per standard protocols using 3,3’ Diaminobenzidine staining (#ab64238, Abcam) for all immunoblots, as previously described. Samples were imaged and annotated using an Aperio ScanScope and software system (Leica Biosystems). […]
(blue circles) and ALL8 (red open circles) 24 hours after the last dose of drugs was administered.
therapy. Median is indicated (bar) with Mean ± SEM indicated for ETP12 and ALL8, 2-way ANOVA
period of administration is indicated in light grey.

| SMILES | viability at 48 h, 0.04 mM (in vitro) [%] | viability at 48 h, 0.2 mM (in vitro) [%] | growth of normal hematopoietic stem and progenitor cells (HSPCs), clonogenic assay [1] | proportion of GFP^hi cells in DN3a thymocytes (GFP^hi DN3a thymocytes; H2B-GFP;Lmo2^Tg mice, result in words) | % GFPhi cells in DN3a population (GFP^hi DN3a thymocytes; mouse, in vivo) | repopulation activity and leukemogenicity of GFP^hi DN3a thymocytes (GFP^hi DN3a thymocytes; result in words) | Absolute numbers human CD45+ cells ([2]; ALL8, BM) | Proportion of hCD45+ (%) in peripheral blood ([2]; ALL8, Time (weeks) 1) [%] | Proportion of hCD45+ (%) in peripheral blood ([2]; ALL8, Time (weeks) 5) [%] | Proportion of hCD45+ (%) in peripheral blood ([2]; ALL8, Time (weeks) 6) [%] | Absolute numbers human CD45+ cells ([2]; ETP12, BM) | Proportion of hCD45+ (%) in peripheral blood ([2]; ETP12, Time (weeks) 1) | Proportion of hCD45+ (%) in peripheral blood ([2]; ETP12, Time (weeks) 2) | Proportion of hCD45+ (%) in peripheral blood ([2]; ETP12, Time (weeks) 3) | Proportion of hCD45+ (%) in peripheral blood ([2]; ETP12, Time (weeks) 7) [%] | patient-derived leukemic cells in bone marrow and spleen, Dynole 34-2 combined with chemotherapy compared with chemotherapy alone ([2]; ETP12 and ALL8 recipients, 24 h after last administration, in words) | leukemic cells in the peripheral blood, bone marrow and spleen, single agent ([2]; ETP12 and ALL8 xenografts, result in words) | Spleen weight ([2]; PDX ALL8) | Spleen weight ([2]; PDX ETP12) |
| --- | --- | --- | --- | --- | --- | --- | --- | --- | --- | --- | --- | --- | --- | --- | --- | --- | --- | --- | --- |
| N#CC[C@H](C1CCCC1)n1cc(-c2ncnc3[nH]ccc23)cn1 [Ruxolitinib] | 83.2 | 39.6 | significantly impaired | – | – | – | – | – | – | – | – | – | – | – | – | – | – | – | – |
| CCCCCCCCNC(=O)C(C#N)=Cc1cn(CCCN(C)C)c2ccccc12 [Dynole 34-2, 2-Cyano-N-octyl-3-(1-(3-dimethylaminopropyl)-1H-indol-3-yl)-acrylamide] | – | – | – | did not affect | 1.5% and 3.3% and 0.2% and 1.3% | significantly impaired | 6540000 and 4120000 and 6090000 | 1.0 | 2.0 | 64.0 | 4510000 and 5170000 and 3540000 | 0.1% and 0.0% and 0.2% | 0.2% and 0.1% and 0.3% and 0.0% | 2.8% and 0.4% and 7.0% and 8.6% and 4.0% and 0.0% and 0.2% | 35.2 | at least tenfold less | significant reduction in leukemic cells | 0.116 g and 0.076 g and 0.075 g | 0.157 g and 0.109 g and 0.091 g |
